Reference: PMC13308190, “Endothelial progenitor cell susceptibility to DNA damaging and DDR-modulating compounds determines endothelial differentiation accuracy” (Stem Cell Research & Therapy, 2026)

Legend:
Type in all cases: cell-based, mouse
[1] = test system: EC d4 (endothelial progenitor cells); test: RT-qPCR mRNA expression; conditions: for Ccl2 mRNA / Icam-1 mRNA / Vcam-1 mRNA / eNos mRNA / iNos mRNA: Fig 8D; for Cdkn1a mRNA / Cdkn2a mRNA / Glb1 mRNA / Il6 mRNA / Il8 mRNA / Tp53 mRNA: Fig 7B
Procedure: (§1) Total RNA was purified using the RNeasy Mini Kit (Qiagen, Hilden, Germany). Reverse transcriptase (RT) reaction was performed with the HighCapacity cDNA Reverse Transcription Kit (Applied Biosystems, Darmstadt, Germany) using 900–2000 ng of RNA. Quantitative RT-qPCR analysis was performed using following conditions: (1) 95 °C–10 min; (2) 45 amplification cycles with 95 °C–15 s, 55 °C–15 s, and 72 °C–17 s; (3) 95 °C–1 min, 55 °C–1 min, 65 °C–5 s. If not stated otherwise, analyses were performed in technical triplicates using pooled samples from two independent experiments (each performed with biological duplicates) by use of a CFX96 cycler (BioRad) and the SensiMix SYBR Kit (Bioline, London, UK). The primers used for mRNA expression analyses are listed in Supplementary Table 1. To ensure the specificity of the amplification product, melting curves were recorded at the end of the run. mRNA expression levels were normalized to β-Actin and Gapdh. Relative mRNA expression in mESC or corresponding untreated controls was set to 1.0. Only changes in gene expression of ≤ 0.5- and ≥ 2-fold were considered as biologically relevant.
To monitor prototypical functions of endothelial cells, the uptake of fluorescent 1,1-dioctadecyl-3,3,3,3-tetra-methylindocarbocyanine-labeled acetylated LDL (Dil-acLDL) was examined. Briefly, cells were incubated with Dil-acLDL (10 µg/ml, 4 h, 37 °C). After fixation (3.7% cold formaldehyde/PBS (15 min, RT) nuclei were counterstained with DAPI. The uptake of DiI-acLDL was analyzed by fluorescence microscopy (Olympus BX43, 20x objective). Additionally, the response of differentiated EC to inflammatory cytokines was measured. After treatment with a pro-inflammatory cytokine mixture (TNFα/IL-1β, 10 ng/mL) for 1 h, mRNA expression of activated EC markers E-selectin, Icam-1, Vcam-1, Ccl2, eNos, iNos was analyzed (RT-qPCR).

[2] = test system: EC d6 (endothelial-like cells); test: RT-qPCR mRNA expression; conditions: for Cdkn1a mRNA / Cdkn2a mRNA / Glb1 mRNA / Il6 mRNA / Il8 mRNA / Tp53 mRNA: Fig 7C
Procedure: as §1

mESC = test: Western blot protein expression (densitometry); conditions: mESC 24 h
Procedure: Total protein cell extracts were obtained upon sonication in RIPA buffer (EpiShearTM Probe sonicator, Active Motif [La Hulpe, Belgium]). Protein concentrations were determined using the DC Protein Assay (BioRad [Munich, Germany]). Extracts were supplemented with Roti®-Load buffer (Carl Roth GmbH [Karlsruhe, Germany]) followed by heating (95 °C for 5 min). 20 µg of protein was separated by SDS-PAGE and transferred onto nitrocellulose membrane. After blocking (5% non-fat milk in TBS/0.1% Tween 20 or 5% BSA in TBS/0.1% Tween 20) (1 h, RT) membrane was incubated with primary antibodies (1:500–5000; overnight, 4 °C). After washing with TBS/0.1% Tween 20, peroxidase-conjugated secondary antibody (1:2000) was added (2 h, RT) and bands were visualized using ChemiDoxTM Touch imaging system (BioRad, Munich, Germany).

[3] = EC d4 + 0.5 µM 48 h, analysed in EC d6
[4] = EC d4 + 0.5 µM 48 h, then + I/T (IL-1β/TNFα 10 ng/ml, 1 h)
[5] = EC d4 + 1 µM 48 h, analysed day 6, Fig 1C
[6] = EC d4 + 1 µM 48 h, analysed in EC d6
[7] = EC d4 + 1 µM 48 h, then + I/T (IL-1β/TNFα 10 ng/ml, 1 h)
[8] = EC d6 + 10 µM 24 h + 24 h post incubation
[9] = EC d6 + 20 µM 24 h + 24 h post incubation
[10] = Fig 5D, concentration 1 (Dox 1/B02 1/EST 1)
[11] = Fig 5D, concentration 2 (Dox 2/B02 2/EST 2)

Nc1ccccc1NC(=O)c1ccc(CNC(=O)OCc2cccnc2)cc1 [EST, entinostat]
Ccl2 mRNA [1, 3]: 4.20 Fold of untreated control | Icam-1 mRNA [1, 3]: 6.04 Fold of untreated control | Vcam-1 mRNA [1, 3]: 0.80 Fold of untreated control | eNos mRNA [1, 3]: 156.02 Fold of untreated control | iNos mRNA [1, 3]: 4.21 Fold of untreated control | Ccl2 mRNA [1, 4]: 454.50 Fold of untreated control | Icam-1 mRNA [1, 4]: 26.69 Fold of untreated control | Vcam-1 mRNA [1, 4]: 1.68 Fold of untreated control | eNos mRNA [1, 4]: 165.80 Fold of untreated control | iNos mRNA [1, 4]: 4.06 Fold of untreated control | Cdkn1a mRNA ([1]; EC d4 + 0.5 µM 48 h): 1.59 Fold of untreated control | Cdkn2a mRNA ([1]; EC d4 + 0.5 µM 48 h): 1.29 Fold of untreated control | Glb1 mRNA ([1]; EC d4 + 0.5 µM 48 h): 1.41 Fold of untreated control | Il6 mRNA ([1]; EC d4 + 0.5 µM 48 h): 0.99 Fold of untreated control | Il8 mRNA ([1]; EC d4 + 0.5 µM 48 h): 0.80 Fold of untreated control | Tp53 mRNA ([1]; EC d4 + 0.5 µM 48 h): 1.018 Fold of untreated control | Flk1 mRNA [1, 5]: 19.60 Fold of mESC | Nanog mRNA [1, 5]: 0.05 Fold of mESC | Oct4 mRNA [1, 5]: 0.05 Fold of mESC | Pecam1 mRNA [1, 5]: 1.30 Fold of mESC | VE-cad mRNA [1, 5]: 858.76 Fold of mESC | Ccl2 mRNA [1, 6]: 0.90 Fold of untreated control | Icam-1 mRNA [1, 6]: 5.21 Fold of untreated control | Vcam-1 mRNA [1, 6]: 0.49 Fold of untreated control | eNos mRNA [1, 6]: 58.94 Fold of untreated control | Ccl2 mRNA [1, 7]: 132.23 Fold of untreated control | Icam-1 mRNA [1, 7]: 19.80 Fold of untreated control | Vcam-1 mRNA [1, 7]: 1.55 Fold of untreated control | eNos mRNA [1, 7]: 53.06 Fold of untreated control | iNos mRNA [1, 7]: 1.30 Fold of untreated control | Brca1 mRNA ([1]; EC d4 + 1 µM 48 h, Fig 5C): 0.32 Fold of mESC | Chk1 mRNA ([1]; EC d4 + 1 µM 48 h, Fig 5C): 0.51 Fold of mESC | Rad51 mRNA ([1]; EC d4 + 1 µM 48 h, Fig 5C): 0.26 Fold of mESC | Pgc1a mRNA ([1]; EC d4 + 1 µM 48 h, Fig 6D): 0.21 Fold of untreated control | Cdkn1a mRNA ([1]; EC d4 + 1 µM 48 h): 1.62 Fold of untreated control | Cdkn2a mRNA ([1]; EC d4 + 1 µM 48 h): 1.49 Fold of untreated control | Glb1 mRNA ([1]; EC d4 + 1 µM 48 h): 1.61 Fold of untreated control | Il6 mRNA ([1]; EC d4 + 1 µM 48 h): 1.09 Fold of untreated control | Il8 mRNA ([1]; EC d4 + 1 µM 48 h): 0.57 Fold of untreated control | Tp53 mRNA ([1]; EC d4 + 1 µM 48 h): 0.99 Fold of untreated control | Cldn5 mRNA ([1]; EC d4 + 1 µM 48 h, Fig 8C): 0.55 Fold of EC d4 or d6 | Ocln mRNA ([1]; EC d4 + 1 µM 48 h, Fig 8C): 1.06 Fold of EC d4 or d6 | Tjp1 mRNA ([1]; EC d4 + 1 µM 48 h, Fig 8C): 1.56 Fold of EC d4 or d6 | Ldlr mRNA ([1]; EC d4 + 1 µM 48 h, Fig 8F): 0.66 Fold of untreated control | Cdkn1a mRNA [2, 8]: 1.91 Fold of untreated control | Cdkn2a mRNA [2, 8]: 1.85 Fold of untreated control | Glb1 mRNA [2, 8]: 3.60 Fold of untreated control | Il6 mRNA [2, 8]: 1.19 Fold of untreated control | Il8 mRNA [2, 8]: 0.24 Fold of untreated control | Tp53 mRNA [2, 8]: 0.82 Fold of untreated control | Cdkn1a mRNA [2, 9]: 2.49 Fold of untreated control | Cdkn2a mRNA [2, 9]: 2.02 Fold of untreated control | Glb1 mRNA [2, 9]: 5.40 Fold of untreated control | Il6 mRNA [2, 9]: 2.47 Fold of untreated control | Il8 mRNA [2, 9]: 0.48 Fold of untreated control | Tp53 mRNA [2, 9]: 0.96 Fold of untreated control | Brca1 mRNA ([2]; EC d6 + 20 µM 24 h, Fig 5C): 0.19 Fold of mESC | Chk1 mRNA ([2]; EC d6 + 20 µM 24 h, Fig 5C): 0.44 Fold of mESC | Rad51 mRNA ([2]; EC d6 + 20 µM 24 h, Fig 5C): 0.11 Fold of mESC | Pgc1a mRNA ([2]; EC d6 + 20 µM 24 h, Fig 6D): 5.75 Fold of untreated control | Cldn5 mRNA ([2]; EC d6 + 20 µM 24 h, Fig 8C): 2.16 Fold of EC d4 or d6 | Ocln mRNA ([2]; EC d6 + 20 µM 24 h, Fig 8C): 1.62 Fold of EC d4 or d6 | Tjp1 mRNA ([2]; EC d6 + 20 µM 24 h, Fig 8C): 1.46 Fold of EC d4 or d6 | H3ac protein (mESC; Fig 1D): 16.6 Fold of mESC | H4ac protein (mESC; Fig 1D): 7426.8 Fold of mESC | aTubac (acetylated α-Tubulin) protein (mESC; Fig 1D): 1.0 Fold of mESC | CHK1 protein (mESC; Fig 4H, Eto, Dox 1, B02, EST): 1.0 Fold of mESC | p-ATR protein (mESC; Fig 4H, Eto, Dox 1, B02, EST): 2.9 Fold of mESC | p-CHK1 protein (mESC; Fig 4H, Eto, Dox 1, B02, EST): 0.1 Fold of mESC | p-RPA32 protein (mESC; Fig 4H, Eto, Dox 1, B02, EST): 1.3 Fold of mESC | p-p53 protein (mESC; Fig 4H, Eto, Dox 1, B02, EST): 0.9 Fold of mESC | CHK1 protein (mESC; [10]): 0.8 Fold of mESC | RAD51 protein (mESC; [10]): 1.4 Fold of mESC | gH2AX protein (mESC; [10]): 7.7 Fold of mESC | p-CHK2 protein (mESC; [10]): 1.0 Fold of mESC | p-KAP1 protein (mESC; [10]): 2.9 Fold of mESC | p-RPA32 protein (mESC; [10]): 0.7 Fold of mESC | p-p53 protein (mESC; [10]): 0.9 Fold of mESC | CHK1 protein (mESC; [11]): 0.7 Fold of mESC | RAD51 protein (mESC; [11]): 1.4 Fold of mESC | gH2AX protein (mESC; [11]): 10.1 Fold of mESC | p-CHK2 protein (mESC; [11]): 1.0 Fold of mESC | p-KAP1 protein (mESC; [11]): 8.2 Fold of mESC | p-RPA32 protein (mESC; [11]): 0.7 Fold of mESC | p-p53 protein (mESC; [11]): 0.8 Fold of mESC | AMPKa protein (mESC; Fig 6E): 0.5 Fold of mESC | GSK3b protein (mESC; Fig 6E): 1.2 Fold of mESC | p-p70SK protein (mESC; Fig 6E): 0.8 Fold of mESC
